Assay [1] deals with GABAA receptors. The format is cell-based, mice. The conditions noted are these: for GABAergic miniature SSCs (mSSCs): BMI 100 μM, in presence of DNQX, D-AP5 and TTX, apoE3-KI and apoE4-KI mice. The source says:
ApoE3-KI and apoE4-KI mice (2-3 months) were sacrificed 2 weeks after retrovirus-GFP injection and processed for slice preparation as described (Duan et al., 2007; Ge et al., 2006a). Whole-cell voltage-clamp recordings from visually identified GFP^+ neurons (2 weeks after injection) were obtained with an infrared differential interference contrast video microscopy system.
Next the level of GABAergic synaptic innervation, which is critical for neuronal development of newborn hippocampal cells (Ge et al., 2006a; Ge et al., 2006b; Liu et al., 2006; Tozuka et al., 2005), was assessed. GABAergic miniature SSCs (mSSCs) were recorded from GFP^+ neurons (resting membrane potential Vm=−65 mV) 2 weeks after injection of the retrovirus-GFP construct. These studies were conducted in the presence of 6,7-dinitroquinoxaline-2,3-dione (DNQX) (20 μM) and D-(−)-2-amino-5-phosphonovaleric acid (D-AP5) (50 μM) to block glutamate-mediated currents and tetrodotoxin (TTX) (1 μM) to block action potential-mediated GABA release.
In the presence of DNQX and D-AP5, GABA-evoked postsynaptic currents (ePSCs) recorded from GFP^+ neurons were generated by electrical stimulation of GABAergic axons in the molecular layer of the dentate gyrus. This indicates a functional coupling between hilar GABAergic interneurons and newborn neurons in both apoE3-KI and apoE4-KI mice. However, the ePSC peak amplitude was ˜40% lower in apoE4-KI mice (FIGS. 6C, 6D, and 6F). This finding is consistent with a reduction of presynaptic GABAergic inputs onto newborn neurons available for electrical activation in apoE4-KI mice. […] This finding reconfirms the intact GABAA receptor function in newborn neurons of apoE4-KI mice.

The subject of assay [2] is NSC proliferation. The experiment in a line: Effect of GABAA receptor potentiator or antagonist treatment on NSC proliferation (BrdU+ cells in SGZ). Format: in vivo, mice. The conditions noted are these: 1 day after BrdU injection. The procedure: (§1) Female mice (3, 6-7, or 12-13 months of age) received two intraperitoneal injections of BrdU (Sigma, 100 mg/kg body weight) 6 h apart. One day, 3 days, and 4 and 10 weeks after the second injection, the brains were perfused with phosphate-buffered saline and collected.
To investigate the effect of GABAA receptor potentiator or antagonist treatment on NSC proliferation, female mice (6-7 months of age) were treated with once-daily intraperitoneal injections of pentobarbital (PB) (Sigma, 50 mg/kg; apoE4-KI mice) or picrotoxin (PTX) (Sigma, 4 mg/kg; apoE3-KI mice). Twenty-four hours after the last treatment, mice received two injections of BrdU (100 mg/kg) 6 h apart and were sacrificed 1 day later. […]
Mouse brains were fixed in 4% paraformaldehyde for 3 days, and coronal sections (40 μm) were cut continuously throughout the entire hippocampus with a vibratome. Single- or double-immunostained cells on both sides of the hippocampus of all stained sections were counted and calculated. Numbers of newborn cells (BrdU^+) and immature neurons (BrdU^+ and Dcx^+) in the SGZ were determined 1 or 3 days after BrdU injection; numbers of surviving newborn cells (BrdU^+) and mature neurons (BrdU^+ and NeuN^+) in the SGZ were determined 4 or 10 weeks after injection. Newborn neurons that had migrated from the SVZ to the OB were quantified 4 weeks after BrdU injection as reported (Galvão et al., 2008). […]

Assay [3] concerns dendritic development of newborn neurons. The experiment in a line: Dendritic development of retrovirus-GFP labelled newborn hippocampal neurons. Format: in vivo, mice.
The test system of assay [4] is neuronal maturation. The experiment in a line: Effect of GABAA receptor potentiator or antagonist treatment on neuronal maturation (SGZ, 4 weeks after BrdU). The format is in vivo, mice. How it is done: as §1
To investigate the effect of GABAA receptor potentiator or antagonist treatment on NSC proliferation, female mice (6-7 months of age) were treated with once-daily intraperitoneal injections of pentobarbital (PB) (Sigma, 50 mg/kg; apoE4-KI mice) or picrotoxin (PTX) (Sigma, 4 mg/kg; apoE3-KI mice). Twenty-four hours after the last treatment, mice received two injections of BrdU (100 mg/kg) 6 h apart and were sacrificed 1 day later. To investigate the effect of GABAA receptor potentiator or antagonist treatment on neuronal maturation, female mice (6-7 months of age) received two injections of BrdU 6 h apart. Twenty-four hours later, apoE3-KI mice received daily injections of PTX for 7 consecutive days, and apoE4-KI mice received daily injections of PB for 28 consecutive days. Mice were sacrificed 4 weeks after the second BrdU injection.
Mouse brains were fixed in 4% paraformaldehyde for 3 days, and coronal sections (40 μm) were cut continuously throughout the entire hippocampus with a vibratome. Every eighth section was immunostained with various primary and secondary antibodies and examined with a laser-scanning confocal system.
Immunostaining was carried out with anti-BrdU (mouse monoclonal, Chemicon, 1:400; or rat monoclonal, Abcam, 1:400) and/or with antibodies against other cellular markers, including mouse anti-NeuN (Chemicon, 1:400), mouse anti-nestin (Chemicon, 1:50), goat anti-Dcx (Santa Cruz Biotechnology, 1:40), goat anti-Sox2 (Santa Cruz Biotechnology, 1:350), rabbit anti-GFAP (Invitrogen, 1:400), mouse anti-β-III-tubulin (Promega, 1:800), mouse anti-S100β (Abcam, 1:400), and rat anti-Noggin (R&D Systems, 1:200). Corresponding secondary antibodies (Texas Red and fluorescein, 1:250, Vector Laboratories) were used. For Ki67, somatostatin, and GAD67 immunostaining, rabbit anti-Ki67 (Bethyl Labs, 1:1000), rat anti-somatostatin (Chemicon, 1:100), and mouse anti-GAD67 (Chemicon, 1:1500) were used with biotinylated goat anti-rabbit IgG (1:250), rabbit anti-rat IgG (1:250), and rabbit anti-mouse IgG (1:250) as secondary antibodies and diaminobenzadine as a chromagen (Dako).
Mouse brains were fixed in 4% paraformaldehyde for 3 days, and coronal sections (40 μm) were cut continuously throughout the entire hippocampus with a vibratome. Single- or double-immunostained cells on both sides of the hippocampus of all stained sections were counted and calculated. Numbers of newborn cells (BrdU^+) and immature neurons (BrdU^+ and Dcx^+) in the SGZ were determined 1 or 3 days after BrdU injection; numbers of surviving newborn cells (BrdU^+) and mature neurons (BrdU^+ and NeuN^+) in the SGZ were determined 4 or 10 weeks after injection. Newborn neurons that had migrated from the SVZ to the OB were quantified 4 weeks after BrdU injection as reported (Galvão et al., 2008). The number of GABAergic interneurons in the hilus of the dentate gyrus was determined by counting GAD67- and somatostatin-positive cells.

Assay [5] has as its system NSCs from apoE-KO mice. As to the kind of experiment: NSC culture and neural differentiation in vitro. The conditions noted are these: neuronal differentiation conditions, Noggin 500 ng/ml. The format is cell-based. The procedure:
NSCs were isolated from brains of apoE3-KI, apoE4-KI, wildtype, and apoE-KO mice at postnatal day 1 (P1) using a modified neurosphere method (Brewer and Torricelli, 2007; Ray and Gage, 2006). The expression of apoE and Noggin in NSCs with different apoE genotypes was assessed by anti-apoE and anti-Noggin (R&D Systems) western blots of cell lysates. Neural differentiation of the established NSCs with different apoE genotypes was induced in vitro as reported (Song et al., 2002). In some experiments, recombinant mouse Noggin (R&D Systems) was added at 500 ng/ml into the medium during neural differentiation. Neuronal and astrocytic differentiation of NSCs at 7 days was determined and quantified.

Setting [6] is: apoE4-KI mice, daily PB for 4 weeks.
The mark [7] stands for this setting: apoE3-KI mice, daily PTX for 7 days, 4 weeks after BrdU injection.

Read-outs that look alike come from different tables or passages of the source.

Turning to `C[N+]1(C)CCc2cc3c(cc2[C@H]1[C@@H]1OC(=O)c2c1ccc1c2OCO1)OCO3.[I-]` [Bicuculline methoiodide], the “ePSCs (evoked postsynaptic currents)” value in assay [1] (BMI 100 μM bath application, in presence of DNQX and D-AP5) is given as “Currents were blocked”. Further, the “GABAergic miniature SSCs (mSSCs)” value in assay [1] is reported as “abolished the mSSCs”; in assay [1] (listed as BMI), “The mSSCs were blocked”.

As to `NCCCC(=O)O` [GABA, gamma-aminobutyric acid], the “current amplitudes evoked by focal application” value in assay [1] (exogenous GABA 500 μM, GFP+ neurons from apoE3-KI vs apoE4-KI mice) was “evoked similar current amplitudes in GFP^+ neurons from apoE3-KI and apoE4-KI mice”.

For `CCCC(C)C1(CC)C(=O)NC(=O)NC1=O` (stereo not drawn) [pentobarbital], in assay [2] (apoE4-KI mice, PB 50 mg/kg i.p. once daily), the “number of newborn cells (BrdU+) in the SGZ” value was “decreased the number of newborn cells to levels similar to those of wildtype and untreated apoE3-KI mice”. In addition, in assay [3] (apoE3-KI mice treated with PB), the “length of dendritic branches of newborn neurons” value is reported as “did not alter the length or number of dendritic branches” and the “number of dendritic branches of newborn neurons” value is reported as “did not alter the length or number of dendritic branches”. In addition, in assay [3] (apoE4-KI mice treated with PB), the “dendritic branch number of newborn neurons” value is “increases in both dendritic length and branch number to levels similar to those in wildtype and apoE3-KI mice”; the “dendritic length of newborn neurons” value was “increases in both dendritic length and branch number to levels similar to those in wildtype and apoE3-KI mice”. In addition, the “number of dendritic branches of newborn neurons” value in assay [3] (wildtype mice treated with PB) is on record as “trend toward significant increase (p=0.053)”. In assay [4] (setting [6]), the “number of immature neurons” value was “decreased the number of immature neurons” and the “number of mature neurons” value is “increased the number of mature neurons”.

On to picrotoxin, for which, in assay [2] (apoE3-KI mice, PTX 4 mg/kg i.p. once daily for 3 days), the “number of newborn cells (BrdU+) in the SGZ” value is on record as “increased the number of newborn cells 1 day after BrdU injection to a level similar to that in untreated apoE4-KI mice”. For the same molecule, in assay [4] (setting [7]), the “number of immature neurons” value is recorded as “the number of immature neurons was increased”, the “number of mature neurons” value is reported as “the number of mature neurons was decreased” and the “survival of newborn cells” value was “the survival of newborn cells was unaltered”.

B1: recombinant mouse Noggin: recombinant mouse Noggin (R&D Systems), bone-morphogenetic protein (BMP) inhibitor (protein, UniProt P97466 28-232, looked up)
Noggin: QHYLHIRPAPSDNLPLVDLIEHPDPIFDPKEKDLNETLLRSLLGGHYDPGFMATSPPEDRPGGGGGPAGGAEDLAELDQLLRQRPSGAMPSEIKGLEFSEGLAQGKKQRLSKKLRRKLQMWLWSQTFCPVLYAWNDLGSRFWPRYVKVGSCFSKRSCSVPEGMVCKPSKSVHLTVLRWRCQRRGGQRCGWIPIQYPIISECKCSC
In the case of B1, in assay [5], the astrogenesis result is listed as “inhibited astrogenesis” and the neurogenesis entry was “stimulated neurogenesis to levels similar to those of NSCs from wildtype mice”.

Values taken from patent US20110135611A1 (priority 2009, published 2011).
